Where “and” joins values, the source holds several entries; their conditions need not be identical. Equal entries are not always repeated. Structures can show the parent of a compound that is named as a salt.
Legend:
[1] = system: LTB4 induced neutrophil degranulation; experiment: Human Neutrophil Degranulation Assay (LTB4 induced myeloperoxidase release); type: cell-based; conditions: LTB4 5×10^-8 M, cytochalasin B, human neutrophils, 7 minutes preincubation with compound, read-out: Inhibition of LTB4 Induced Neutrophil Degranulation IC50
Source text: (§1) For use in both the "LTB4 receptor Binding Assay" and the "Human Neutrophil Degranulation Assay", neutrophils were purified from venous blood of normal human donors using standard techniques of dextran sedimentation, centrifugation on Histopaque® (density solution) and hypotonic lysis of erythrocytes (Boyum, A., Isolation of Leukocytes From Human Blood: Further Observations. Scand. J. Lab. Clin. Inves. 21 (Suppl. 97): 31, 1968). The purity of isolated neutrophils was ≥95%.
LTB4 induced neutrophil degranulation was determined by measuring the release of myeloperoxidase activity into the incubation medium. Neutrophils (3×10^6) in 1 ml HBSS solution was preincubated with cytochalasin B(5 μg) at 37° C. for 5 minutes, followed by preincubation with test compounds for 7 minutes. Neutrophils were then incubated for 2 to 20 minutes with either LTB4 (5×10^-8 M) or the chemotactic peptide f-met-leu-phe ([…]) to induce degranulation. Following incubation, samples were centrifuged and myleoperoxidase was extracted from the cell pellets by sonication in phosphate buffer containing 0.4% Triton X-100. Triton X-100 was also added to the supernatents to a concentration of 0.4%. The supernatants and the pellet extracts were then assayed spectrophotometrically for myeloperoxide activity by determining the rate of decomposition of H2 O2 with o-dianisidine as hydrogen donor as described by Renlund, D. G., MacFarlane, J. L., Christensen, R. D., Lynch, R. E., and Rothstein, G., A Quantitative And Sensitive Method For Measurement Of Myeloperoxidose, Clinical Research 28: 75A, 1980). Myeloperoxidase activity released into the supernatant was expressed as the percent of the average total activity (pellet plus supernatant).
The inhibition of LTB4 induced neutrophil degranulation was determined for representative compounds of this invention and their corresponding IC50 values were calculated (Table 1). The concentration of a compound which inhibited LTB4 induced neutrophil degranulation by 50% was determined to be its IC50 value.

LTB4 receptors = target: T1, LTB4 receptors (Homo sapiens, UniProt Q15722); experiment: LTB4 Receptor Binding Assay ((3H) LTB4, human neutrophils); conditions: 0.6 nM (3H) LTB4, human neutrophils; for IC50: 0° C., 45 minutes, pH 7.4, read-out: Inhibition of Receptor Binding of LTB4 IC50
T1 construct: neutrophils were purified from venous blood of normal human donors; endogenous in cells; host or cells: neutrophils purified from venous blood of normal human donors (purity ≥95%)
Source text: as §1
Neutrophils (4-6×10^6) in 1 ml of Hanks' balanced salt solution containing 10 mM Hepes Buffer (HBSS), pH 7.4 and 30 μM nordihydroguaiaretic acid were incubated with 0.6 nM (^3 H) LTB4 in the presence or absence of test compounds. The incubation was carried out at 0° C. for 45 minutes and terminated by adding 5 ml of ice-cold HBSS followed by rapid filtration of incubation mixture under vacuum through GF/C glass fiber filters. The filters were further washed with 10 ml HBSS and their radioactivity was determined. Specific binding was defined as the difference between total binding and nonspecific binding which was not displaced by 10^-7 M unlabeled LTB4.
The inhibition of specific binding was determined for representative compounds of this invention, and the corresponding IC50 values calculated (Table 1). An IC50 is the concentration of the compound of interest which will inhibit the binding of LTB4 by 50% of the LTB4 receptors. For example, for the compound of Example 7, the IC50 was determined to be approximately 5 μM.

T1 sequence (Q15722 whole entry): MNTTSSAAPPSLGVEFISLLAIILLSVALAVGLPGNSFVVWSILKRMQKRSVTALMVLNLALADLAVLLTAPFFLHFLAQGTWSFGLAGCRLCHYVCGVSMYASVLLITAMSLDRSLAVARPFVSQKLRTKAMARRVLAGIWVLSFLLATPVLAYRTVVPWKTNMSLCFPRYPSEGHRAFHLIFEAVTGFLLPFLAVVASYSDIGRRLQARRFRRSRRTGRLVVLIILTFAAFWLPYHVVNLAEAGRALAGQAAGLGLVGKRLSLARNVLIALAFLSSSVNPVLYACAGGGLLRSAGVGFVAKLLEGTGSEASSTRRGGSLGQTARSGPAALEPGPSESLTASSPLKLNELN

| SMILES | IC50 [1] [nM] | inhibition at 10 µM (LTB4 receptors; at 10μM) [%] | IC50 (LTB4 receptors) |
| --- | --- | --- | --- |
| CCCCCCCCC(O)c1ccc(C#CC(O)CCCC(=O)O)s1 (stereo not shown) [Example 22, 7-[2-[5-(1-hydroxynonyl)]thienyl-5-hydroxy-6Z-heptynoic acid, lithium salt] | 8700 | 20 |  |
| CCCCC/C=C\CC(O)c1ccc(/C=C\[C@@H](O)CCCC(=O)O)cc1 (stereo partly drawn) [Example 7, 7[4-(1-hydroxy-3Z-nonenyl)phenyl]-5S-hydroxy-6Z-heptenoic acid, lithium salt] | 700 |  | ~5000 nM and 5000 nM |
| CCCCCCCCC(O)c1ccc(/C=C\C(O)CCCC(=O)O)s1 (stereo not shown) [Example 23, 7-[2-[5-(1-hydroxynonyl)]thienyl-5-hydroxy-6Z-heptenoic acid, lithium salt] | 1800 |  | 5000 nM |

Continued, values first:

| IC50 [1] [nM] | inhibition at 10 µM (LTB4 receptors; at 10μM) [%] | IC50 (LTB4 receptors) | SMILES |
| --- | --- | --- | --- |
| 650 |  | 1000 nM | CCCCCCCCC(O)c1ccc(/C=C\C(O)CCCC(=O)OC)cc1 (stereo not shown) [Example 12, Methyl 7-[4-(1-hydroxynonyl)phenyl]-5-hydroxy-6Z-heptenoate] |
| 1000 |  | 2000 nM | CCCCCCCCC(O)c1ccc(/C=C\C(O)CCCC(=O)O)cc1 (stereo not shown) [Example 21, 7-[4-(1-hydroxynonyl)phenyl]-5-hydroxy-6Z-heptenoic acid, lithium salt] |
